Consider 1 compound from publication PMC8728441, “Biosynthesis of the redox cofactor mycofactocin is controlled by the transcriptional regulator MftR and induced by long-chain acyl-CoA species” (The Journal of Biological Chemistry, 2021).

Molecules are shown by their SMILES.

For orientation: Kd means the concentration at which binding is half-saturated. Low readings indicate tighter binding, high ones weaker binding.

The target of one test is MftR (WT) (Mycolicibacterium smegmatis, UniProt A0QSB5). Put plainly: ITC binding of acyl-CoAs to MftR. The arrangement: species or system Mycobacterium smegmatis mc^2155. Here is the method:
(§1) ITC was performed using TA Nano ITC. MftR was loaded in the sample cell at the concentration of 16 and 250 μM acyl-CoAs (C12–C18) loaded in the syringe. To minimize the effect of buffer mismatch, the stock concentration of acyl-CoAs was prepared using ITC buffer (50 mM Hepes, 50 mM NaCl, and pH 7.5), and the pH was adjusted to within 0.05 units. In addition, MftR was buffer exchanged into ITC buffer using a PD-10 column (GE Life Sciences). The volume of the titrant added at each injection into the sample cell was 2.22 μl. The time interval between the successive injections was 180 s. The temperature of the cell was kept at 25 °C. The data obtained were fit by independent one-site model using NanoAnalyze Data Analysis, version 3.8.0, that was provided with the instrument.

In another test the target is T1, MftR L120A (Mycolicibacterium smegmatis, UniProt A0QSB5, L120A).
T1 sequence (A0QSB5 1-200 L120A): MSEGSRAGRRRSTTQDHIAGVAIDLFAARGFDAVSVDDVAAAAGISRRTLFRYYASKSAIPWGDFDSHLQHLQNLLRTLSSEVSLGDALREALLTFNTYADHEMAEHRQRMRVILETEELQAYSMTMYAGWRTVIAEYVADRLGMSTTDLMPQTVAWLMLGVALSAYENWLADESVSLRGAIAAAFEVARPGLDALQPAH
Put plainly: ITC binding of oleoyl-CoA to MftR variant. Set-up: species or system Mycobacterium smegmatis mc^2155.

In a further test the target is MftR L120R (Mycolicibacterium smegmatis, UniProt A0QSB5, L120R). Briefly: ITC binding of oleoyl-CoA to MftR variant. Set-up: species or system Mycobacterium smegmatis mc^2155. Here is the method: (§2) Finally, we examined the effects of mutations at the interface of the DNA-binding and effector-binding domains. Here, residues Leu120 and Met127 were mutated to arginine and alanine, respectively, and the Kds for oleoyl-CoA and Omft were measured as described previously.
(§3) Mutant strand synthesis reactions were performed according to the Agilent QuikChange site-directed mutagenesis protocol. The mftR_pET28a plasmid was used as a template for site-directed mutagenesis studies. Sequence-verified plasmids were transformed into E. coli BL21(DE3) pLysS cells for protein production and purified using the same protocol as wildtype MftR.
as §1, with “The data obtained were fit by independent one-site model using NanoAnalyze Data Analysis, version 3.8.0, that was provided with the instrument.” left out

A further test deals with MftR M127A (Mycolicibacterium smegmatis, UniProt A0QSB5, M127A). Briefly: ITC binding of oleoyl-CoA to MftR variant. The arrangement: species or system Mycobacterium smegmatis mc^2155. Here is the method:
as §2, §3
as §1, with “The data obtained were fit by independent one-site model using NanoAnalyze Data Analysis, version 3.8.0, that was provided with the instrument.” left out

Another test concerns MftR–Omft complex. Put plainly: Competitive EMSA screen for effectors of MftR. Type of test: binding, Mycobacterium smegmatis mc^2155. The conditions noted are these: 6-FAM Omft 0.5 μM, MftR 5 μM, effectors 100 μM. The protocol:
Next, we assessed which metabolites activate MftR and thus could induce MFT production. To do so, we carried out competitive EMSAs where FAM-labeled Omft and MftR were incubated in the presence of potential effectors. We initially chose our effectors based on cholesterol catabolism, a process that putatively includes MFT biosynthetic genes ([38]). […] Knowing that TFRs have a propensity to be activated by fatty acyl-CoAs ([20]), we expanded our effector screening to include short-chain, medium-chain, and long-chain acyl-CoAs.
Figure 4 Effectors of MftR.A, an EMSA used to screen effectors of MftR. The 6-FAM–labeled Omft region (0.5 μM) was incubated with the MftR (5 μM) in the absence or the presence of effectors (100 μM). Protein–DNA complexes were separated by electrophoresis on 5% polyacrylamide gel. […] B, a representative isothermal titration calorimetry thermogram for the binding of the oleoyl-CoA to MftR regulator (blue) and the control of oleoyl-CoA into buffer (red). Each peak corresponds to the injection of 2.22 μl of 250 μM oleoyl-CoA into the cell containing 16 μM MftR or buffer. The integrated thermogram (blue dots) was fitted to a single-site binding model (black line) to determine the Kd. […] C, a bar graph depicting the ITC measured Kds for various acyl-CoAs. Bars represent the mean of three independent experiments, and the error bars represent the standard deviation of the experiments. 6-FAM, 6-carboxyfluorescein; ITC, isothermal titration calorimetry; Omft, mft operator.
His-tagged MftR was used to assess the protein binding to Pmft–MftA promoter fragment. DNA was mixed with increasing concentrations of the MftR protein in the reaction buffer (50 mM Hepes, 50 mM NaCl 0.1 mM EDTA, and pH 7.5) and incubated at room temperature for 10 min. The reactions were resolved by electrophoresis on a 5% (v/v) nondenaturing polyacrylamide gel in 1× Tris/borate/EDTA buffer at 200 V for 20 min on ice. Prior to the analysis, the gel was prerun for 30 min at 150 V on ice. Results were visualized by GelRed and recorded using Azure Biosystems 600 imaging system.
(Mobility shift assays separate free from complexed probe on a gel.)

For `CCCCCCCC/C=C\CCCCCCCC(=O)SCCNC(=O)CCNC(=O)[C@H](O)C(C)(C)COP(=O)(O)OP(=O)(O)OC[C@H]1O[C@@H](n2cnc3c(N)ncnc32)[C@H](O)[C@@H]1OP(=O)(O)O` [oleoyl-CoA], the dissociation constant (Kd) on MftR (WT) came to 1.4 ± 0.1 µM; on MftR L120A, 5.2 ± 0.2 µM; at MftR L120R, 6.2 ± 0.2 µM; on MftR M127A, 4.8 ± 0.1 µM. Also, on MftR (WT) (ITC, WT MftR, one-site model), the “number of binding sites” value is recorded as roughly 0.6 sites per monomer MftR. Besides, the “disruption of the MftR–Omft complex (DNA release)” value in the test on MftR–Omft complex is given as “disrupted the MftR–Omft complex”.
